Measured values: US20230123334A1, “AMINO LIPID COMPOUND, PREPARATION METHOD THEREFOR, AND APPLICATION THEREOF” (SHENZHEN SHENXIN BIOTECHNOLOGY CO., LTD., priority 2020, published 2023)

Legend:
Type in all cases: cell-based
[1] = system: Hela cells; test: Transfection of Hela cell line, DNA vectors; settings: 75 ng plasmid DNA, GFP cells / total cells
Protocol: 1. The compound (0.01 mmol) prepared in Example 1 was dissolved in 1 mL of anhydrous ethanol. After ultrasonically dissolved, 10 μL of the resultant amino lipid solution in ethanol was taken and mixed with 5 μL of DOPE solution in ethanol (0.01 m), and then to the obtained mixture was added 35 μL of 0.2M sodium acetate buffer (pH 5.6), and 50 μL of liposome solution was prepared by vortex at a constant rotating speed for 30 s. 4 μL was taken from the 50 μL liposome solution and added to 46 μL of 0.02M sodium acetate buffer (pH 5.6), and the final liposome solution was formed by vortex at a constant rotating speed for 30 s. 5 μL was taken from the final liposome solution and mixed with 75 ng plasmid DNA (psin-EGFP-IRES-Puro, Clontech) dissolved in 5 μL of 0.02 M sodium acetate buffer, and was allowed to stay at room temperature for 30 min to form a lipid/DNA transfection complex.
2. 10 μL of the lipid/DNA transfection complex was incubated at room temperature for 30 min, followed by addition of 90 μL of fresh resuspended cells (3-5×10^4 cells) and mixing with a pipette. 100 μL of cells+lipid/DNA complex was transferred to separate wells of a 96-well culture plate immediately, and placed in an incubator containing 5% CO2 at 37° C.
3. Hoechst33258 (Invitrogen) was added at a final concentration of 0.2 μg/mL to the cells 20 to 24 hours after initial cell transfection, and cultured in darkness at 37° C. for 15 min. Afterwards, the cells were washed once with a PBS solution, and then added with medium for culture for 20 to 24 h.
4. The cells were placed in a high-throughput confocal microscope (Molecular Devices ImageXpress), and four visual fields of the image of the cells were captured for each well, and images at three laser wavelengths were captured for each sample: bright field images of cells (FIG. 2(a) and FIG. 2(b)), Hoechst-staining images showing total nuclei (FIG. 2(c) and FIG. 2(d)) and GFP images showing success in transfection with the plasmid DNA and the expression of GFP (FIG. 2(e) and FIG. 2(f)). MetaXpress software was used to separately count the cells in the Hoechst-staining images and GFP images, and then the number of cells expressing GFP was divided by the total number of nuclei to give the absolute cell transfection efficiency. The absolute transfection efficiency was calculated as follows: […]
(§1) Cell line: Hela cells (ATCC 35241)
(§2) Medium: DMEM supplemented with 10% fetal bovine serum (Invitrogen)
(§3) Screening: cell transfection on 96-well plates
(§4) Detection (readout): percentage of the number of GFP fluorescent cells relative to the total number of cells (the total number of cells was determined using nucleus dye Hoechst). Lipofectamine2000 (Invitrogen) was used as the positive control, according to the manufacturer's instructions.
Method: the experimental method was basically the same with Example 4.

[2] = system: Hela cells; test: Transfection of Hela cell line, mRNA vectors; settings: 50 ng EGFP mRNA per well
Protocol: as §1, §2, §3
as §4, with “Hoechst). A commercially available liposome transfection reagent” for “Hoechst).”, “control group,” for “control,”
Method: the experimental method was basically the same with Example 4, and the mass of EGFP mRNA for transfection was 50 ng per well.

[3] = system: HEK293 cells; test: Preliminary screening as mRNA vectors, EGFP mRNA transfection of HEK293 cells; settings: HEK293 cells, 96-well plates, EGFP mRNA 50 ng per well; percentage of GFP fluorescent cells relative to total number of cells (Hoechst)
Summary of the method: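 Screening format: EGFP mRNA transfection (50 ng/well) into HEK293 in 10% FBS-supplemented DMEM. Percent green fluorescent cells, normalised to Hoechst nuclear count, gave the value; Lipofectamine2000 was the reference transfectant.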

[4] = system: HEK293 cells; test: Preliminary screening as DNA vectors, GFP transfection of HEK293 cells; settings: HEK293 cells; lipid/DOPE liposome with 75 ng plasmid DNA (psin-EGFP-IRES-Puro); number of cells expressing GFP divided by total number of nuclei (Hoechst)
Summary of the method: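 First, amino lipid and DOPE were vortexed in sodium acetate buffer (pH 5.6) to form liposomes. Next, these were held with 75 ng EGFP plasmid at room temperature for 30 min. Finally, HEK293 cells were added, cultured at 37° C., Hoechst-stained, and GFP+/total nuclei scored by imaging.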

CCCCCCCCCCCCNc1nc(NCCN(CC)CC)nc(SCCCCCCCC)n1 [Compound S8N12D7]
Absolute DNA transfection efficiency in Hela cells [1]: 4.7%
Absolute mRNA transfection efficiency in Hela cells [2]: 4.7%

CCCCCCCCCCCSc1nc(NCCCCCCCC)nc(NCCN(C)C)n1 [Compound S11N8D1]
Absolute DNA transfection efficiency in Hela cells [1]: 9.9%
Absolute mRNA transfection efficiency in Hela cells [2]: 9.9%

CCCCCCCCCCCSc1nc(NCCCCCCCCC)nc(NCCN(CC)CC)n1 [Compound S11N9D7]
Absolute DNA transfection efficiency in Hela cells [1]: 0.9%
Absolute mRNA transfection efficiency in Hela cells [2]: 0.9%

CCCCCCCCCCCSc1nc(NCCCCCCCCC)nc(NCCN(C)C)n1 [Compound S11N9D1]
Absolute DNA transfection efficiency in Hela cells [1]: 6.0%
Absolute mRNA transfection efficiency in Hela cells [2]: 6.0%

CCCCCCCCCCCSc1nc(NCCN2CCCCC2)nc(SCCCCCCC)n1 [Compound S7S11D4]
Absolute DNA transfection efficiency in Hela cells [1]: 7.9%
Absolute mRNA transfection efficiency in Hela cells [2]: 7.9%

CCCCCCCCCCCSc1nc(NCCCCCCCC)nc(NCCN2CCCCC2)n1 [Compound S11N8D4]
Absolute DNA transfection efficiency in Hela cells [1]: 2.9%
Absolute mRNA transfection efficiency in Hela cells [2]: 2.9%

CCCCCCCCCCCCNc1nc(NCCN(CC)CC)nc(SCCCCCCCCC)n1 [Compound S9N12D7]
Absolute DNA transfection efficiency in Hela cells [1]: 6.8%
Absolute mRNA transfection efficiency in Hela cells [2]: 6.8%

CCCCCCCCCCCCNc1nc(NCCN2CCOCC2)nc(SCCCCCCCC)n1 [Compound S8N12D2]
Absolute DNA transfection efficiency in Hela cells [1]: 19.3%
Absolute mRNA transfection efficiency in Hela cells [2]: 19.3%

CCCCCCCCCCCSc1nc(NCCCCCCCCC)nc(NCCN2CCOCC2)n1 [Compound S11N9D2]
Absolute DNA transfection efficiency in Hela cells [1]: 6.8%
Absolute mRNA transfection efficiency in Hela cells [2]: 6.8%

CCCCCCCCCCCSc1nc(NCCN2CCCCC2)nc(SCCCCCCCC)n1 [Compound S8S11D4]
Absolute DNA transfection efficiency in Hela cells [1]: 4.5%
Absolute mRNA transfection efficiency in Hela cells [2]: 4.5%

CCCCCCCCCCCNc1nc(NCCN(C)C)nc(SCCCCCCCC)n1 [Compound S8N11D1]
Absolute DNA transfection efficiency in Hela cells [1]: 21.12%
Absolute mRNA transfection efficiency in Hela cells [2]: 21.2%

CCCCCCCCCCCCNc1nc(NCCN(C)C)nc(SCCCCCCCC)n1 [Compound S8N12D1]
Absolute DNA transfection efficiency in Hela cells [1]: 11.5%
Absolute mRNA transfection efficiency in Hela cells [2]: 11.5%

CCCCCCCCCCCCSc1nc(NCCN2CCCCC2)nc(SCCCCCCCC)n1 [Compound S8S12D4]
Absolute DNA transfection efficiency in Hela cells [1]: 5.4%
Absolute mRNA transfection efficiency in Hela cells [2]: 5.4%

CCCCCCCCCCCSc1nc(NCCN(CC)CC)nc(SCCCCCCCC)n1 [Compound S8S11D7]
Absolute DNA transfection efficiency in Hela cells [1]: 5.7%
Absolute mRNA transfection efficiency in Hela cells [2]: 5.7%

CCCCCCCCCCCCNc1nc(NCCN2CCCCC2)nc(SCCCCCCCC)n1 [Compound S8N12D4]
Absolute DNA transfection efficiency in Hela cells [1]: 3.81%
Absolute mRNA transfection efficiency in Hela cells [2]: 3.8%

CCCCCCCCCCCCSc1nc(NCCN(CC)CC)nc(SCCCCCCC)n1 [Compound S7S12D7]
Absolute DNA transfection efficiency in Hela cells [1]: 3.5%
Absolute mRNA transfection efficiency in Hela cells [2]: 3.5%

CCCCCCCCCCCNc1nc(NCCN(CC)CC)nc(SCCCCCCCC)n1 [Compound S8N11D7]
Absolute DNA transfection efficiency in Hela cells [1]: 12.2%
Absolute mRNA transfection efficiency in Hela cells [2]: 12.3%

CCCCCCCCCCCCNc1nc(NCCN(C)C)nc(SCCCCCCCCC)n1 [Compound S9N12D1]
Absolute DNA transfection efficiency in Hela cells [1]: 19.7%
Absolute mRNA transfection efficiency in Hela cells [2]: 19.6%

CCCCCCCCCNc1nc(NCCN2CCOCC2)nc(SCCCCCCCCC)n1 [Compound S9N9D2]
Absolute DNA transfection efficiency in Hela cells [1]: 12.0%
Absolute mRNA transfection efficiency in Hela cells [2]: 12.0%

CCCCCCCCCCCCSc1nc(NCCN2CCOCC2)nc(SCCCCCCCC)n1 [Compound S8S12D2]
Absolute DNA transfection efficiency in Hela cells [1]: 8.7%
Absolute mRNA transfection efficiency in Hela cells [2]: 8.7%

CCCCCCCCCNc1nc(NCCCCCCC)nc(NCCN(CC)CC)n1 [Compound N7N9D7]
Absolute mRNA transfection efficiency in HEK293 cells [3]: 0.0%
Absolute DNA transfection efficiency in HEK293 cells [4]: 0.0%

CCCCCCCCCCCCCCCCCCSc1nc(NCC2CCN(C)CC2)nc(SCCCCCCCCCCC)n1 [Compound S11S18D10]
Absolute mRNA transfection efficiency in HEK293 cells [3]: 92.0%
Absolute DNA transfection efficiency in HEK293 cells [4]: 20.9%

CCCCCCCCCCCCCCCCSc1nc(NCCN2CCCCC2)nc(SCCCCCCCCCCCCCC)n1 [Compound S14S16D4]
Absolute mRNA transfection efficiency in HEK293 cells [3]: 0.0%
Absolute DNA transfection efficiency in HEK293 cells [4]: 0.6%

CCCCCCCCCCCCCCSc1nc(NCCN2CCCC2)nc(SCCCCCCCC)n1 [Compound S8S14D3]
Absolute mRNA transfection efficiency in HEK293 cells [3]: 3.4%
Absolute DNA transfection efficiency in HEK293 cells [4]: 13.9%

CCCCCCCCCCCCCCCCSc1nc(NCCCN(C)C)nc(SCCCCCCCCCCCCCCCC)n1 [Compound S16S16D6]
Absolute mRNA transfection efficiency in HEK293 cells [3]: 0.5%
Absolute DNA transfection efficiency in HEK293 cells [4]: 0.5%

CCCCCCCCCCCCCCCCCCNc1nc(NCCCCCCCCC)nc(NCCCN(C)C)n1 [Compound N9N18D6]
Absolute mRNA transfection efficiency in HEK293 cells [3]: 2.5%
Absolute DNA transfection efficiency in HEK293 cells [4]: 2.2%

CCCCCCCCCCCCCCCNc1nc(NCCCCCC)nc(NCCCN2CCOCC2)n1 [Compound N6N15D8]
Absolute mRNA transfection efficiency in HEK293 cells [3]: 0.0%
Absolute DNA transfection efficiency in HEK293 cells [4]: 0.3%

CCCCCCCCCCCCCCCNc1nc(NCCCCCCC)nc(NCCN(C)C)n1 [Compound N7N15D1]
Absolute mRNA transfection efficiency in HEK293 cells [3]: 1.3%
Absolute DNA transfection efficiency in HEK293 cells [4]: 1.0%

CCCCCCCCCCCCCCCCCCSc1nc(NCCCN2CCOCC2)nc(SCCCCCCCCCCC)n1 [Compound S11S18D8]
Absolute mRNA transfection efficiency in HEK293 cells [3]: 3.3%
Absolute DNA transfection efficiency in HEK293 cells [4]: 7.8%

CCCCCCCCCCCSc1nc(NCCN(CC)CC)nc(SCCCCCCCCCC)n1 [Compound S10S11D7]
Absolute mRNA transfection efficiency in HEK293 cells [3]: 1.8%
Absolute DNA transfection efficiency in HEK293 cells [4]: 7.3%

CCCCCCCNc1nc(NCCCCCCC)nc(NCCN(C)C)n1 [Compound N7N7D1]
Absolute mRNA transfection efficiency in HEK293 cells [3]: 0.0%
Absolute DNA transfection efficiency in HEK293 cells [4]: 0.0%

CCCCCCCCCCCCCNc1nc(NCCCCCCCC)nc(NCCCN2CCOCC2)n1 [Compound N8N13D8]
Absolute mRNA transfection efficiency in HEK293 cells [3]: 0.2%
Absolute DNA transfection efficiency in HEK293 cells [4]: 0.0%

CCCCCCCCCCCCCNc1nc(NCCCCCCCCCCCC)nc(NCCN2CCCCC2)n1 [Compound N12N13D4]
Absolute mRNA transfection efficiency in HEK293 cells [3]: 0.0%
Absolute DNA transfection efficiency in HEK293 cells [4]: 0.0%

CCCCCCCCCCCCCCCSc1nc(NCCCN2CCN(C)CC2)nc(SCCCCCCCC)n1 [Compound S8S15D9]
Absolute mRNA transfection efficiency in HEK293 cells [3]: 22.0%
Absolute DNA transfection efficiency in HEK293 cells [4]: 13.9%

CCCCCCCCCCCCCCCNc1nc(NCCCCCCCC)nc(NCCN2CCN(C)CC2)n1 [Compound N8N15D5]
Absolute mRNA transfection efficiency in HEK293 cells [3]: 0.2%
Absolute DNA transfection efficiency in HEK293 cells [4]: 0.6%

CCCCCCCCCCCCCCCCNc1nc(NCCCCCCCC)nc(NCCCN(C)C)n1 [Compound N8N16D6]
Absolute mRNA transfection efficiency in HEK293 cells [3]: 1.5%
Absolute DNA transfection efficiency in HEK293 cells [4]: 2.4%

CCCCCCCCCCCCCCCNc1nc(NCCCCCCCCCCCCCCC)nc(NCCN2CCOCC2)n1 [Compound N15N15D2]
Absolute mRNA transfection efficiency in HEK293 cells [3]: 0.0%
Absolute DNA transfection efficiency in HEK293 cells [4]: 0.0%

CCCCCCCCCCCCCNc1nc(NCCCCCCCCCCC)nc(NCCN2CCOCC2)n1 [Compound N11N13D2]
Absolute mRNA transfection efficiency in HEK293 cells [3]: 0.1%
Absolute DNA transfection efficiency in HEK293 cells [4]: 0.0%
